Structures can show the parent of a compound that is named as a salt.
Tests used:
[1] = biological target: serotonin 5-HT2C receptor; experiment: [3H]-mesulergine binding in native female hypothalami preparation; parameters: species or system human; settings: reference compound
Method: Human frozen hypothalami were from a healthy person and a healthy person (Tissue Solutions Ltd., Glasgow, UK). The tissue was minced in 20 ml 10 mM HEPES pH 7.4, 1 mM EDTA on ice with a disperger (20 s at 28 Trpm) and centrifuged for 15 min at 31,600×g at 4 °C. The pellet was homogenized (10 strokes with a glass-teflon homogenizer, 2000 rounds per minute) at 4 °C and again centrifuged. The latter procedure was repeated once and the pellet finally resupended in 50 mM HEPES pH 7.4, 4 mM MgCl2, and 1 mM EDTA; frozen in liquid nitrogen; and stored at − 80 °C until usage.
(§1) The serotonin 5-HT2C(e) receptor binding assay was performed according to the data sheet provided by the supplier of the receptor preparation, with modifications. The receptor preparation was incubated for 120 min at 37 °C in 50 mM Tris-HCl (pH 7.4), 0.1% ascorbic acid and 10 μM pargyline with 0.5 nM [N^6-methyl-^3H]-mesulergine in the dark.
In membranes from human native female hypothalami, no specific binding of the radioligand for the 5-HT1A, [^3H]-8-OH-DPAT, could be observed, indicating the absence of the serotonin 5-HT1A receptor at least in the investigated preparation.

[2] = biological target: human serotonin 5-HT2C(e) receptors; experiment: serotonin 5-HT2C(e) receptor binding assay ([3H]-mesulergine); settings: reference compound
Method: as §1
All assays were terminated by transfer of the samples onto filter plates (PerkinElmer or Whatman), presoaked in assaybuffer (GABAA, GABAB, alpha2A and muscarinic M3), treated with 0.5% BSA (μ-opioid), presoaked with 0.5% polyethyleneimine (5-HT2B, 5-HT2C(e)), or presoaked with 0.1% polyethyleneimine (5-HT1A, 5-HTT). Filters were washed four times with 200 μl of ice-cold 50 mM Tris-HCl pH 7.4 (GABAA, GABAB, Alpha2A, 5-HT1A, 5-HT2B 5-HT2C(e), μ-opioid, and muscarinic M3) or 50 mM Tris-HCl pH 7.4/0.5 M NaCl (5-HTT), and filter-bound radioactivity was determined by a microplate reader (Microbeta, Wallac, Finnland). […]
The IC50 value (concentration causing half-maximal inhibition of specific binding) was determined by non-linear regression analysis of the competition curves using the “sigmoidal dose-response” algorithm (GraphPad Prism, San Diego, USA). […]

[3] = biological target: benzodiazepine site of the GABAA receptor; experiment: GABAA-benzodiazepine site binding assay ([3H]-Ro-15-1788); settings: reference compound
Method: The GABAA-benzodiazepine site binding assay was performed as described by Mehta and Shank [28], with minor modifications. Membranes were incubated for 30 min at 22 °C in 50 mM Tris-HCl (pH 7.4) and 100 mM NaCl with 1 nM [^3H]-Ro-15-1788. Non-specific binding was determined with 10 μM diazepam.
From every data point non-specific binding was subtracted and data normalized (100% specific binding represents the specific binding of the radioligand to the binding site of the receptor in the absence of any effector).

[4] = biological target: human serotonin transporters; parameters: method as in ref 33 (Tatsumi et al.); settings: [3H]-imipramine binding; ref 33 (Tatsumi et al.); cited from earlier work
[5] = tested on: AChE; parameters: method as in ref 31 (Kishibayashi et al.); settings: ref 31 (Kishibayashi et al.); cited from earlier work

Question: What does the source list for O=C1Nc2cc(Cl)c(Cl)cc2N2CCNCC12 (centres unmarked) [WAY 161503, WAY 161503 hydrochloride]?
Answer: IC50 [1]: 0.347 µM; IC50 [2]: 0.163 µM

Question: For CN1C(=O)CN=C(c2ccccc2)c2cc(Cl)ccc21 [diazepam], which IC50 [3] is on record?
Answer: 0.039 µM

Question: For CN(C)CCCN1c2ccccc2CCc2ccccc21 [imipramine, Imipramine hydrochloride], which Kd [4] is on record?
Answer: 0.0014 µM

Question: For CN(C)C(=O)Oc1cccc([N+](C)(C)C)c1 [neostigmine], which IC50 [5] is on record?
Answer: 0.036 µM
